Assay results as given in patent publication US20260007681A1, “INDOLE DERIVATIVES AS ESTROGEN RECEPTOR DEGRADERS” (REGENTS OF THE UNIVERSITY OF MICHIGAN, priority 2022, published 2026).

Target: ER (Homo sapiens (Human), UniProt P03372)
Assay: Western blot analysis (Compounds B1-B278)
Format: cell-based
Settings: ER degradation by traditional Western blot; DC50 classes
Procedure, shortened: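 Compound-treated cells were lysed in RIPA buffer (Tris.HCl pH 7.6, 1% NP-40, deoxycholate, 0.1% SDS) with protease inhibitors; equal protein was resolved on 10% SDS-PAGE, transferred to PVDF and immunoblotted. Band intensities were quantified and normalized to GAPDH.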

Chain of ER (P03372 whole entry): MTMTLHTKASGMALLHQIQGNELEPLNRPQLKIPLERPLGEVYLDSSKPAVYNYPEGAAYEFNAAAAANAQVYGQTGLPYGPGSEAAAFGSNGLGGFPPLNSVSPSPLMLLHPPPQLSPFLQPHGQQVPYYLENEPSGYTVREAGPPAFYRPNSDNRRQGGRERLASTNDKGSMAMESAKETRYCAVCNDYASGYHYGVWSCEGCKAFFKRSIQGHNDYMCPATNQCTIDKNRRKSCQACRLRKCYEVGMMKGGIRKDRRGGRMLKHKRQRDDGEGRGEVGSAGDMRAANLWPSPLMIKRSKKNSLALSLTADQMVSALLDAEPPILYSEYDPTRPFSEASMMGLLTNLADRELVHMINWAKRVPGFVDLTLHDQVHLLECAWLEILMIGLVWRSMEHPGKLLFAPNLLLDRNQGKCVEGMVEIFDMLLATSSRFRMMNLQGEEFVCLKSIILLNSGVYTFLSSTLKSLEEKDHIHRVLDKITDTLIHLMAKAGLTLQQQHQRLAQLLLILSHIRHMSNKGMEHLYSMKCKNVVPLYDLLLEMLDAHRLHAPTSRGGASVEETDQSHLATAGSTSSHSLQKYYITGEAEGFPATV

Row | SMILES | Traditional Western Degradation Potency
1 | C[C@@H]1Cc2c([nH]c3ccccc23)[C@@H](c2ccc(C3=CCC4(CC3)CCN(C(=O)CN3Cc5cc6c(cc5C3)C(=O)N(C3CCC(=O)NC3=O)C6=O)CC4)cc2F)N1CC(F)F (stereo partly drawn) [Compound B241, 6-(2-(9-(4-((1R,3R)-2-(2,2-difluoroethyl)-3-methyl-2,3,4,9-tetrahydro-1H-pyrido[3,4-b]indol-1-yl)-3-fluorophenyl)-3-azaspiro[5.5]undec-8-en-3-yl)-2-oxoethyl)-2-(2,6-dioxopiperidin-3-yl)-6,7-dihydropyrrolo[3,4-f]isoindole-1,3(2H,5H)-dione] | C (“C”: >100 nM)
2 | C[C@@H]1Cc2c([nH]c3ccccc23)[C@@H](c2ccc(C3CCC4(CC3)CCN(C(=O)CN3Cc5cc6c(cc5C3)C(=O)N(C3CCC(=O)NC3=O)C6=O)CC4)cc2F)N1CC(F)F (stereo partly drawn) [Compound B243, 6-(2-(9-(4-((1R,3R)-2-(2,2-difluoroethyl)-3-methyl-2,3,4,9-tetrahydro-1H-pyrido[3,4-b]indol-1-yl)-3-fluorophenyl)-3-azaspiro[5.5]undecan-3-yl)-2-oxoethyl)-2-(2,6-dioxopiperidin-3-yl)-6,7-dihydropyrrolo[3,4-f]isoindole-1,3(2H,5H)-dione] | C (“C”: >100 nM)
3 | C[C@@H]1Cc2c([nH]c3ccccc23)[C@@H](c2c(F)cc(C3CCC4(CC3)CCN(C(=O)CN3Cc5cc6c(cc5C3)C(=O)N(C3CCC(=O)NC3=O)C6=O)CC4)cc2F)N1CC(F)F (stereo partly drawn) [Compound B244, 6-(2-(9-(4-((1R,3R)-2-(2,2-difluoroethyl)-3-methyl-2,3,4,9-tetrahydro-1H-pyrido[3,4-b]indol-1-yl)-3,5-difluorophenyl)-3-azaspiro[5.5]undecan-3-yl)-2-oxoethyl)-2-(2,6-dioxopiperidin-3-yl)-6,7-dihydropyrrolo[3,4-f]isoindole-1,3(2H,5H)-dione] | C (“C”: >100 nM)

Other lines, results leading:

Row | Traditional Western Degradation Potency | SMILES
4 | B (“B”: 10-100 nM) | C[C@@H]1Cc2c([nH]c3ccccc23)[C@@H](c2ccc(C3=CCC(C(=O)N4CCC(N5Cc6cc7c(cc6C5)C(=O)N(C5CCC(=O)NC5=O)C7=O)CC4)CC3)cc2F)N1CC(C)(C)F (stereo partly drawn) [Compound B245, 2-(2,6-dioxopiperidin-3-yl)-6-(1-(3′-fluoro-4′-((1R,3R)-2-(2-fluoro-2-methylpropyl)-3-methyl-2,3,4,9-tetrahydro-1H-pyrido[3,4-b]indol-1-yl)-2,3,4,5-tetrahydro-[1,1′-biphenyl]-4-carbonyl)piperidin-4-yl)-6,7-dihydropyrrolo[3,4-f]isoindole-1,3(2H,5H)-dione]
5 | C (“C”: >100 nM) | C[C@@H]1Cc2c([nH]c3ccccc23)[C@@H](c2ccc(C3=CCC(C(=O)N4CCC(N5Cc6cc7c(cc6C5)C(=O)N(C5CCC(=O)NC5=O)C7=O)CC4)CC3)cc2F)N1CC(C)(F)F (stereo partly drawn) [Compound B246, 6-(1-(4′-((1R,3R)-2-(2,2-difluoropropyl)-3-methyl-2,3,4,9-tetrahydro-1H-pyrido[3,4-b]indol-1-yl)-3′-fluoro-2,3,4,5-tetrahydro-[1,1′-biphenyl]-4-carbonyl)piperidin-4-yl)-2-(2,6-dioxopiperidin-3-yl)-6,7-dihydropyrrolo[3,4-f]isoindole-1,3(2H,5H)-dione]
6 | C (“C”: >100 nM) | C[C@@H]1Cc2c([nH]c3ccccc23)[C@@H](c2ncc(C3=CCC(C(=O)N4CCC(N5Cc6cc7c(cc6C5)C(=O)N(C5CCC(=O)NC5=O)C7=O)CC4)CC3)cc2F)N1CC(C)(F)F (stereo partly drawn) [Compound B247, 6-(1-(4-(6-((1S,3R)-2-(2,2-difluoropropyl)-3-methyl-2,3,4,9-tetrahydro-1H-pyrido[3,4-b]indol-1-yl)-5-fluoropyridin-3-yl)cyclohex-3-ene-1-carbonyl)piperidin-4-yl)-2-(2,6-dioxopiperidin-3-yl)-6,7-dihydropyrrolo[3,4-f]isoindole-1,3(2H,5H)-dione]
